Assay results from US20220265629A1, “TREATMENT OF SYSTOLIC DYSFUNCTION AND HEART FAILURE WITH REDUCED EJECTION FRACTION WITH THE COMPOUND (R)-4-(1-((3-(DIFLUOROMETHYL)-1-METHYL-1H-PYRAZOL-4-YL)SULFONYL)-1-FLUOROETHYL)-N-(ISOXAZOL-3-YL)PIPERIDINE-1-CARBOXAMIDE” (MyoKardia, Inc., priority 2019, published 2022).
Like-named read-outs stand apart in the source and are kept apart here.

Experiment: Food effect cross-over study, 200 mg (25 mg tablets), healthy volunteers: plasma pharmacokinetics
Assay type: in vivo, human
Conditions: for concentration at 36 h / concentration at 48 h / concentration at 72 h / AUC(0-inf) / AUC(0-t) / Cmax / Tmax / MRT / half-life: human, plasma; for concentration at 36 h: 36 hours postdose; for concentration at 48 h: 48 hours postdose; for concentration at 72 h: 72 hours postdose
Source text: This example describes a clinical study for establishing, in healthy volunteers, the effect of a high fat, high caloric meal on the PK profile of Compound I, as compared to administration of the drug in the fasted state. The study also was intended to determine the safety and tolerability after a single oral dose of Compound I in the fed and fasted state in healthy volunteers. The measurements of PK, PD, and other clinical parameters were done as described in Example 1 above.
This study was an open-label, randomized, two-period cross-over study in healthy volunteers aged 18-55 years. Subjects were screened up to 28 days before the first treatment period. Subjects were admitted to the clinical site on Day −1 (the day before dosing) of Period 1. Approximately half of the subjects randomly received a single dose of Compound I on Day 1 of the first treatment period after the ingestion of a high fat, high caloric breakfast, and the remainder were closed in the fasted state. Any subject with a preclose resting HR≥95 beats per minute (bpm) was considered ineligible and was not treated. Any subjects with an acute gastrointestinal disorder which could impact drug/food absorption (e.g., vomiting, diarrhea) were rescheduled. Subjects were confined to the clinic until Day 4, and discharged after the 72-hour postclose PK and laboratory samples and vital signs were obtained. After a washout between dosing from 7 to 10 days (or, after consultation with the Investigator, up to 21 days after initial dosing if the subject was unable to attend within the 7 to 10-day window), the subject was admitted for Period 2. The sequence of fed/fasted versus fasted/fed periods was randomized. Subjects returned after the second treatment period for a safety follow-up visit on Day 7 (±1 day).
In both treatment periods, Compound I was administered with 240 mL of water. In the fasted state, the subjects fasted for 10 hours before and for 4 hours after the administration of Compound I. Water could have been ingested up to 1 hour before and after 1 hour post dosing. In the fed state, the subjects fasted for 10 hours before and for 4 hours after the ingestion of the meal, but could have ingested water up to 1 hour before and 1 hour after dosing. In the fed state, the subjects started ingesting the high fat, high caloric meal within 30 minutes prior to Compound I administration and finished the meal within 30 minutes. The meal contained approximately 800 to 1000 calories with about 50% of the calories from fat. The meal consisted of approximately 150 calories from protein, 250 calories from carbohydrate, and 500-600 calories from fat. An example of the meal was a breakfast consisting of two eggs fried in butter, two strips of bacon, two slices of buttered toast, 4 ounces of hash brown potatoes, and 8 ounces of whole milk.
Each subject received two oral doses of 200 mg of Compound I formulated as 25 mg tablets (8 tablets) in a randomized, cross-over fashion, once in the fasted state and the other time after the ingestion of a high fat, high caloric breakfast. There was a washout of between 7 and 21 days between the administrations of the two closes. The Compound I drug substance was a crystalline, free-base, synthetic molecule with a molecular weight of 435.4.
Plasma drug concentrations were measured as described in Example 1 above. Blood samples to measure Compound I plasma concentration were collected at various time points, including on Day 1 preclose (1 hour prior to dosing) and at 1 (±5 min), 2 (±5 min), 3 (±5 min), 4 (+10 min), 5 (+10 min), 6 (+10 min), 9 (+20 min), 12 (+20 min), 18 (+30 min), 24 (+30 min), 36 (+30 min), 48 (+30 min), and 72 (+30 min) hours postclose on both treatment periods.
To assess the effect of food on the PK of Compound I, the two one-sided t-test procedure was used to construct 90% CI around the geometric mean ratios (fed/fasted) of plasma AUCinf, AUClast, and Cmax. […]

[1] = oral, Fed, read-out: Plasma concentration, Geometric Mean
[2] = oral, Fed, read-out: Plasma concentration, Mean
[3] = oral, Fed, read-out: Plasma concentration, Median
[4] = oral, Fasted, read-out: Plasma concentration, Geometric Mean
[5] = oral, Fasted, read-out: Plasma concentration, Mean
[6] = oral, Fasted, read-out: Plasma concentration, Median
[7] = subjects who completed both fasted and fed periods (N = 9)
[8] = subjects who completed both periods (N = 9)

Structure (SMILES): Cn1cc(S(=O)(=O)[C@@](C)(F)C2CCN(C(=O)Nc3ccon3)CC2)c(C(F)F)n1 [Compound I, (R)-4-(1-((3-(difluoromethyl)-1-methyl-1H-pyrazol-4-yl)sulfonyl)-1-fluoroethyl)-N-(isoxazol-3-yl)piperidine-1-carboxamide]
- concentration at 36 h [1]: 834 ng/mL
- concentration at 36 h [2]: 881 ng/mL
- concentration at 36 h [3]: 905 ng/mL
- concentration at 48 h [4]: 306 ng/mL
- concentration at 48 h [5]: 331 ng/mL
- concentration at 48 h [6]: 346 ng/mL
- concentration at 48 h [1]: 476 ng/mL
- concentration at 48 h [2]: 526 ng/mL
- concentration at 48 h [3]: 549 ng/mL
- concentration at 72 h [4]: 93.2 ng/mL
- concentration at 72 h [5]: 108 ng/mL
- concentration at 72 h [6]: 112 ng/mL
- concentration at 72 h [1]: 129 ng/mL
- concentration at 72 h [2]: 161 ng/mL
- concentration at 72 h [3]: 143 ng/mL
- AUC(0-inf) (oral, N = 11, read-out: AUCinf, Fasted LSGM): 59400 ng·h/mL
- AUC(0-inf) (oral, N = 11, read-out: AUCinf, Fed LSGM): 91600 ng·h/mL
- AUC(0-t) (oral, N = 11, read-out: AUClast, Fasted LSGM): 57400 ng·h/mL
- AUC(0-t) (oral, N = 11, read-out: AUClast, Fed LSGM): 88400 ng·h/mL
- Cmax (oral, N = 11, read-out: Cmax, Fasted LSGM): 2300 ng/mL
- Cmax (oral, N = 11, read-out: Cmax, Fed LSGM): 3640 ng/mL
- Cmax (oral, fasted state, read-out: Cmax of mean plasma concentrations): 2310 ng/mL
- Cmax (oral, fasted state, read-out: Cmax, Mean (SD)): 2350 ng/mL
- Tmax (oral, fasted state, read-out: Tmax, Median (range)): 5 h
- Tmax (oral, fasted state, read-out: tmax of mean plasma concentrations): 5 h
- Cmax (oral, fed state, read-out: Cmax of mean plasma concentrations): 3200 ng/mL
- Cmax (oral, fed state, read-out: Cmax, Mean (SD)): 3680 ng/mL
- Tmax (oral, fed state, read-out: Tmax, Median (range)): 5.5 h
- Tmax (oral, fed state, read-out: tmax of mean plasma concentrations): 6 h
- AUC(0-inf) (oral, subjects who completed both fasted and fed periods (N = 9), read-out: AUCinf, Fasted LSGM): 61100 ng·h/mL
- AUC(0-inf) (oral, subjects who completed both fasted and fed periods (N = 9), read-out: AUCinf, Fed LSGM): 93900 ng·h/mL
- AUC(0-t) (oral, subjects who completed both fasted and fed periods (N = 9), read-out: AUClast, Fasted LSGM): 59000 ng·h/mL
- AUC(0-t) (oral, subjects who completed both fasted and fed periods (N = 9), read-out: AUClast, Fed LSGM): 90500 ng·h/mL
- Cmax (oral, subjects who completed both fasted and fed periods (N = 9), read-out: Cmax, Fasted LSGM): 2370 ng/mL
- Cmax (oral, subjects who completed both fasted and fed periods (N = 9), read-out: Cmax, Fed LSGM): 3700 ng/mL
- AUC(0-inf) (po, single 200 mg oral dose, Fasted (N = 10), read-out: AUCinf, Geometric Mean): 61000 ng·h/mL
- AUC(0-inf) (po, single 200 mg oral dose, Fasted (N = 10), read-out: AUCinf, Mean): 62600 ng·h/mL
- AUC(0-inf) (po, single 200 mg oral dose, Fasted (N = 10), read-out: AUCinf, Median): 66700 ng·h/mL
- AUC(0-t) (po, single 200 mg oral dose, Fasted (N = 10), read-out: AUClast, Geometric Mean): 58800 ng·h/mL
- AUC(0-t) (po, single 200 mg oral dose, Fasted (N = 10), read-out: AUClast, Mean): 60200 ng·h/mL
- AUC(0-t) (po, single 200 mg oral dose, Fasted (N = 10), read-out: AUClast, Median): 64400 ng·h/mL
- Cmax (po, single 200 mg oral dose, Fasted (N = 10), read-out: Cmax, Geometric Mean): 2320 ng/mL
- Cmax (po, single 200 mg oral dose, Fasted (N = 10), read-out: Cmax, Mean): 2350 ng/mL
- Cmax (po, single 200 mg oral dose, Fasted (N = 10), read-out: Cmax, Median): 2400 ng/mL
- MRT (po, single 200 mg oral dose, Fasted (N = 10), read-out: MRT, Geometric Mean): 22.3 h
- MRT (po, single 200 mg oral dose, Fasted (N = 10), read-out: MRT, Mean): 22.6 h
- MRT (po, single 200 mg oral dose, Fasted (N = 10), read-out: MRT, Median): 23.9 h
- half-life (po, single 200 mg oral dose, Fasted (N = 10), read-out: T1/2, z, Geometric Mean (converted)): 848 min
- half-life (po, single 200 mg oral dose, Fasted (N = 10), read-out: T1/2, z, Mean (converted)): 857 min
- half-life (po, single 200 mg oral dose, Fasted (N = 10), read-out: T1/2, z, Median (converted)): 893 min
- Tmax (po, single 200 mg oral dose, Fasted (N = 10), read-out: Tmax, Geometric Mean): 4.58 h
- Tmax (po, single 200 mg oral dose, Fasted (N = 10), read-out: Tmax, Mean): 4.7 h
- Tmax (po, single 200 mg oral dose, Fasted (N = 10), read-out: Tmax, Median): 5 h
- AUC(0-inf) (po, single 200 mg oral dose, Fed (N = 10), read-out: AUCinf, Geometric Mean): 91600 ng·h/mL
- AUC(0-inf) (po, single 200 mg oral dose, Fed (N = 10), read-out: AUCinf, Mean): 93500 ng·h/mL
- AUC(0-inf) (po, single 200 mg oral dose, Fed (N = 10), read-out: AUCinf, Median): 94000 ng·h/mL
- AUC(0-t) (po, single 200 mg oral dose, Fed (N = 10), read-out: AUClast, Geometric Mean): 88400 ng·h/mL
- AUC(0-t) (po, single 200 mg oral dose, Fed (N = 10), read-out: AUClast, Mean): 89900 ng·h/mL
- AUC(0-t) (po, single 200 mg oral dose, Fed (N = 10), read-out: AUClast, Median): 89300 ng·h/mL
- Cmax (po, single 200 mg oral dose, Fed (N = 10), read-out: Cmax, Geometric Mean): 3640 ng/mL
- Cmax (po, single 200 mg oral dose, Fed (N = 10), read-out: Cmax, Mean): 3680 ng/mL
- Cmax (po, single 200 mg oral dose, Fed (N = 10), read-out: Cmax, Median): 3770 ng/mL
- MRT (po, single 200 mg oral dose, Fed (N = 10), read-out: MRT, Geometric Mean): 22.6 h
- MRT (po, single 200 mg oral dose, Fed (N = 10), read-out: MRT, Mean): 23.1 h
- MRT (po, single 200 mg oral dose, Fed (N = 10), read-out: MRT, Median): 23.6 h
- half-life (po, single 200 mg oral dose, Fed (N = 10), read-out: T1/2, z, Geometric Mean (converted)): 814 min
- half-life (po, single 200 mg oral dose, Fed (N = 10), read-out: T1/2, z, Mean (converted)): 829 min
- half-life (po, single 200 mg oral dose, Fed (N = 10), read-out: T1/2, z, Median (converted)): 808 min
- Tmax (po, single 200 mg oral dose, Fed (N = 10), read-out: Tmax, Geometric Mean): 6.02 h
- Tmax (po, single 200 mg oral dose, Fed (N = 10), read-out: Tmax, Mean): 6.9 h
- Tmax (po, single 200 mg oral dose, Fed (N = 10), read-out: Tmax, Median): 5.5 h
- AUCinf, Geometric Mean Ratio - Fed/Fasted (% of Reference) [7]: 153.63%
- AUClast, Geometric Mean Ratio - Fed/Fasted (% of Reference) [7]: 153.20%
- Cmax, Geometric Mean Ratio - Fed/Fasted (% of Reference) [7]: 156.43%
- Cmax, geometric mean ratio (fed/fasted) [8]: 156.43%
- increases for AUCinf, AUC0-t and Cmax in the fed state [8]: approximately 50%
